Consider 26 compounds from patent US10030016B2 (Sunesis Pharmaceuticals, Inc., priority 2009, dated 2018).

Structures can show the parent of a compound that is named as a salt. Where two headings read alike, the source gives them in different places.

Experiment [1] deals with phospho-akt (Thr308) in PC-3 cells. The experiment can be described thus: Inhibition of phospho-akt (Thr308) in PC-3 cells, MSD phospho-akt 308 ELISA kit. Type of experiment: cell-based. The conditions noted are these: Homo sapiens, 2 hours, no serum, read-out: EC50. In short, it runs like this:
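PC-3 cells were seeded overnight in growth medium with 10% FBS, then exposed to compound serially diluted threefold in serum-free medium for 2 hours. Lysates were captured overnight at 4 degrees on MSD plates and phospho-Akt Thr308 was detected electrochemiluminescently, against DMSO high and 5 μM wortmannin low controls.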
On the technique in general: In an ELISA, binding on a coated surface is turned into a signal by an enzyme label.

Another experiment has as its target PDK1 (Homo sapiens (Human), UniProt O15530). The experiment can be described thus: PDK1 kinase assay (coupled PDK1/AKT/FAM-crosstide assay, IMAP fluorescence polarization). In kind it is biochemical. Summed up: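 Inhibition is derived by 4-parameter fitting of ΔmP from an IMAP fluorescence polarization read of FAM-crosstide (100 nM) phosphorylation. The cascade ran 30 min at 25 °C with 40 μM ATP, using insect-cell GST-PDK1 51-359 (0.75 nM) driving 10 nM unphosphorylated AKT2 140-467-PIFtide fusion.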
In general terms: Polarisation of emitted light reports the rotation of a fluorescent probe.

Setting [2] is: inhibition of P308 Akt in PC-3 cells, MSD.
[3] abbreviates: inhibition of phospo-PDK1 in vitro.
Where [4] appears, read: inhibition of P308 Akt in PC-3 cells using MSD.

PDK1, sequence (O15530 51-359): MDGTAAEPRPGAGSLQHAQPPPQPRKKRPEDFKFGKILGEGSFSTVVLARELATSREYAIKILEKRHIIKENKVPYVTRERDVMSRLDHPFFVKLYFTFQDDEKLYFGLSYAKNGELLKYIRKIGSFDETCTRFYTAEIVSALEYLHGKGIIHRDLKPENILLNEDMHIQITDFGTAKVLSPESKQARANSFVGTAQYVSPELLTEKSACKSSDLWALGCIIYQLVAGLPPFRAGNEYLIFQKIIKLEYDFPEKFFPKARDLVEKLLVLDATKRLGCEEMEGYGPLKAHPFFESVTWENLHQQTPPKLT

With `CC(C)Nc1ncnc2ccc(-c3ccc(CNc4ncccc4C(=O)NCc4ccc(F)c(F)c4)s3)cc12` [Example 4.12, N-(3,4-difluorobenzyl)-2-(((5-(4-(isopropylamino)quinazolin-6-yl)thiophen-2-yl)methyl)amino)nicotinamide], the EC50 (commonly the midpoint of the concentration-response curve) in experiment [1] (setting [2]) was 1000 to 10000 nM. In addition, the IC50 (as a rule, the concentration needed to halve the response being measured) on PDK1 (setting [3]) was < 100 nM.

Consider `C[C@H](NC(=O)c1cc(C#N)cnc1NCc1ccc(-c2cnc(N)c(CCCN)n2)nc1)c1ccc(F)cc1` [Example 74, 2-({6-[5-Amino-6-(3-amino-propyl)-pyrazin-2-yl]-pyridin-3-ylmethyl}-amino)-5-cyano-N-[(S)-1-(4-fluoro-phenyl)-ethyl]-nicotinamide], for which the EC50 in experiment [1] (PC-3, 2 h, inhibition of P308 Akt in PC-3 cells using MSD) was in the range of 1000 to 10000 nM. In addition, at PDK1 (inhibition of PDK1 in vitro), the IC50 lay in the range of 100 to 1000 nM.

Consider `Nc1ncnc2ccc(-c3ccc(CNc4ncccc4C(=O)Nc4ccc(F)c(C(F)(F)F)c4)s3)cc12` [Example 3.51, 2-({[5-(4-aminoquinazolin-6-yl)thiophen-2-yl]methyl}amino)-N-[4-fluoro-3-(trifluoromethyl)phenyl]pyridine-3-carboxamide (TFA salt)], for which the EC50 in experiment [1] (setting [2]) lay in the range of 1000 to 10000 nM. Also, the IC50 against PDK1 (setting [3]) was in the range of 1000 to 5000 nM.

Regarding `CC(C)Oc1cc(CNc2ncccc2C(=O)N(C)c2ccc(F)cc2)cc(-c2c[nH]c3ncc(C(=O)NC4CC4)cc23)c1` [Example 4.1.9, N-cyclopropyl-3-{3-[({3-[(4-fluorophenyl)(methyl)carbamoyl]pyridin-2-yl}amino)methyl]-5-(propan-2-yloxy)phenyl}-1H-pyrrolo[2,3-b] pyridine-5-carboxamide], the EC50 in experiment [1] (setting [2]) was in the range of 1000 to 10000 nM. Further, the IC50 against PDK1 (setting [3]) was > 5000 nM.

As to `Nc1ncnc2ccc(-c3ccc(CNc4ncc(Br)nc4C(=O)NCc4ccc(F)c(F)c4)s3)cc12` [Ex. 10.2, 3-({[5-(4-aminoquinazolin-6-yl)thiophen-2-yl]methyl}amino)-6-bromo-N-(3,4-difluorobenzyl)pyrazine-2-carboxamide], the EC50 in experiment [1] (setting [2]) lay in the range of 1000 to 10000 nM. Besides, the IC50 against PDK1 (setting [3]) was < 100 nM.

Turning to `O=C(NCc1ccc(F)c(F)c1)c1cc(C(F)(F)F)cnc1NCc1ccc(-c2cnc3[nH]c(=O)[nH]c3c2)cc1` [Example 123, N-(3,4-difluorobenzyl)-2-(4-(2-oxo-2,3-dihydro-1H-imidazo[4,5-b]pyridin-6-yl)benzylamino)-5-(trifluoromethyl) nicotinamide], in experiment [1] (setting [4]), the EC50 was < 1000 nM. Moreover, the concentration for half-maximal inhibition (IC50) at PDK1 (inhibition of PDK1 in vitro) was < 100 nM.

On to `Nc1n[nH]c2ncc(-c3ccc(CNc4ncc(C(F)(F)F)cc4C(=O)NCc4ccc(F)c(Cl)c4)cc3)cc12` [Example 286], for which the EC50 in experiment [1] (setting [4]) is < 1000 nM. Further, the IC50 on PDK1 (inhibition of PDK1 in vitro) was < 100 nM.

With `CCC(C)NS(=O)(=O)c1cnc(NCc2ccc(-c3ccc4ncnc(N)c4c3)s2)c(C(=O)NC)c1` (stereo not shown) [Example 8.6.17, 2-(((5-(4-aminoquinazolin-6-yl)thiophen-2-yl)methyl)amino)-5-(N-sec-butylsulfamoyl)-N-methylnicotinamide], the EC50 in experiment [1] (setting [2]) was in the range of 1000 to 10000 nM. Further, on PDK1 (setting [3]), the IC50 was > 5000 nM.

As to `N#CCc1n[nH]c2ncc(-c3ccc(CNc4ncc(C(F)(F)F)cc4C(=O)Nc4ccc(F)cc4)cc3)cc12` [Example 157, 2-(4-(3-(cyanomethyl)-1H-pyrazolo[3,4-b]pyridin-5-yl)benzylamino)-N-(4-fluorophenyl)-5-(trifluoro-methyl)nicotinamide], the EC50 in experiment [1] (setting [4]) was < 1000 nM. On PDK1 (inhibition of PDK1 in vitro), the IC50 was < 100 nM.

Consider `C[C@H](NC(=O)c1nc(C#N)cnc1NCc1ccc(-c2cnc(N)c(NCC(O)CO)n2)cc1)c1ccc(F)c(F)c1` (stereo partly drawn) [Example 244, 3-{4-[5-Amino-6-(2,3-dihydroxy-propylamino)-pyrazin-2-yl]-benzylamino}-6-cyano-pyrazine-2-carboxylic acid [(S)-1-(3,4-difluoro-phenyl)-ethyl]-amide], for which the concentration giving a half-maximal response (EC50) in experiment [1] (setting [4]) was < 1000 nM. The IC50 at PDK1 (inhibition of PDK1 in vitro) was < 100 nM.

Regarding `N#Cc1cnc(NCc2ccc(-c3c[nH]c4ncnc(N)c34)cc2)c(-c2nccs2)c1` [Example 352], the EC50 in experiment [1] (setting [4]) is > 10000 nM. In addition, the IC50 against PDK1 (inhibition of PDK1 in vitro) was < 100 nM.

Take `C[C@H](NC(=O)c1cccnc1NCc1ccc(-c2c[nH]c3ncnc(N)c23)s1)c1ccc(F)cc1` [Example 2.20, (S)-2-(((5-(4-amino-7H-pyrrolo[2,3-d]pyrimidin-5-yl)thiophen-2-yl)methyl)amino)-N-(1-(4-fluorophenyl)ethyl)nicotinamide]: the EC50 in experiment [1] (setting [2]) was < 1000 nM. Moreover, the IC50 at PDK1 (setting [3]) is 100 to 1000 nM.

Regarding `Nc1n[nH]c2ncc(-c3ccc(CNc4ncc(C(F)(F)F)cc4C(=O)NC4COC4)cc3)cc12` [Example 298, 2-(4-(3-amino-1H-pyrazolo [3,4-b]pyridin-5-yl)benzylamino)-N-(oxetan-3-yl)-5-(trifluoromethyl) nicotinamide], the EC50 in experiment [1] (setting [4]) is > 10000 nM. Moreover, the IC50 on PDK1 (inhibition of PDK1 in vitro) is 1000 to 5000 nM.

With `C[C@H](NC(=O)c1cccnc1NCc1ccc(-c2ccc3ncnc(N4CC(C)(O)C4)c3c2)s1)c1ccc(F)c(F)c1` [Example 4.37], in experiment [1] (setting [2]), the EC50 lay in the range of 1000 to 10000 nM. Further, at PDK1 (setting [3]), the IC50 is 100 to 1000 nM.

Take `C[C@@H](c1ccc(F)cc1)n1cnc2ccnc(NCc3ccc(-c4cc5c(N)ncnc5cn4)s3)c2c1=O` [Example 7.12, 5-({[5-(4-aminopyrido [3,4-d]pyrimidin-6-yl)thiophen-2-yl]methyl}amino)-3-[(1S)-1-(4-fluorophenyl)ethyl] pyrido[4,3-d]pyrimidin-4(3H)-one]: in experiment [1] (setting [2]), the EC50 is > 10000 nM. In addition, the IC50 against PDK1 (setting [3]) is > 5000 nM.

As for `CCOc1ccnc(NCc2ccc(-c3ccc4ncnc(N)c4c3)s2)c1C(=O)NCc1ccc(F)c(F)c1` [Ex. 7.5, 2-({[5-(4-aminoquinazolin-6-yl)thiophen-2-yl]methyl}amino)-N-(3,4-difluorobenzyl)-4-ethoxypyridine-3-carboxamide], in experiment [1] (setting [2]), the EC50 is > 10000 nM. Moreover, on PDK1 (setting [3]), the IC50 lay within 100 to 1000 nM.

`Cc1cc(F)ccc1NC(=O)c1cc(C(F)(F)F)cnc1NCc1ccc(-c2cnc3[nH]nc(N)c3c2)cc1` [Example 295, 2-(4-(3-amino-1H-pyrazolo [3,4-b]pyridin-5-yl)benzylamino)-N-(4-fluoro-2-methylphenyl)-5-(trifluoromethyl)nicotinamide]: the EC50 in experiment [1] (setting [4]) was < 1000 nM. In addition, the IC50 against PDK1 (inhibition of PDK1 in vitro) was < 100 nM.

On to `COCCCc1nc(-c2ccc(CNc3ncc(C#N)cc3C(=O)N[C@@H](C)c3ccc(F)cc3)cc2)cnc1N` [Example 92, 2-{4-[5-Amino-6-(3-methoxy-propyl)-pyrazin-2-yl]-benzyl-amino}-5-cyano-N-[(S)-1-(4-fluoro-phenyl)-ethyl]-nicotinamide], for which the EC50 in experiment [1] (setting [4]) was in the range of 1000 to 10000 nM. At PDK1 (inhibition of PDK1 in vitro), the IC50 is < 100 nM.

For the compound `Nc1ccc(-c2ccc(CNc3nccc4ncn(Cc5ccc(F)c(F)c5)c(=O)c34)cc2)cn1` [Example 374, 5-(4-(6-aminopyridin-3-yl)benzylamino)-3-(3,4-difluorobenzyl)pyrido[4,3-d] pyrimidin-4(3H)-one], in experiment [1] (setting [4]), the EC50 was 1000 to 10000 nM. In addition, the IC50 against PDK1 (inhibition of PDK1 in vitro) is < 100 nM.

As for `N#Cc1cnc(NCc2ccc(-c3cnc4[nH]c(=O)[nH]c4c3)cc2)c(C(=O)NCc2ccc(F)cc2)n1` [Example 365, 6-cyano-N-(4-fluorobenzyl)-3-(4-(2-oxo-2,3-dihydro-1H-imidazo[4,5-b]pyridin-6-yl)benzylamino)pyrazine-2-carboxamide], the EC50 in experiment [1] (setting [4]) is < 1000 nM. Also, on PDK1 (inhibition of PDK1 in vitro), the IC50 was < 100 nM.

Consider `NCCNc1nc(-c2ccc(CNc3ncc(C(F)(F)F)cc3C(=O)Nc3ccc(F)cc3)cc2)cnc1N` [Example 194, 2-{4-[5-Amino-6-(2-amino-ethylamino)-pyrazin-2-yl]-benzylamino}-N-(4-fluoro-phenyl)-5-trifluoromethyl-nicotinamide], for which the EC50 in experiment [1] (setting [4]) is < 1000 nM. Further, on PDK1 (inhibition of PDK1 in vitro), the IC50 was < 100 nM.

As for `Nc1ncnc2ccc(-c3ccc(CNc4ncccc4C(=O)NCc4ccc(C(F)(F)F)o4)s3)cc12` [Example 3.28, 2-({[5-(4-aminoquinazolin-6-yl)thiophen-2-yl]methyl}amino)-N-{[5-(trifluoromethyl)furan-2-yl]methyl}pyridine-3-carboxamide (bis TFA salt)], the EC50 in experiment [1] (PC-3, 2 h, inhibition of P308 Akt in PC-3 cells, MSD) is > 10000 nM. In addition, at PDK1 (setting [3]), the IC50 was in the range of 1000 to 5000 nM.

Turning to `C[C@H](NC(=O)c1nc(C#N)cnc1N[C@H](CO)c1ccc(-c2cnc3[nH]nc(N)c3c2)cc1)c1ccc(F)c(F)c1` [Example 353, 3-((S)-1-(4-(3-amino-1H-pyrazolo[3,4-b]pyridin-5-yl)phenyl)-2-hydroxy-ethylamino)-6-cyano-N-((S)-1-(3,4-difluorophenyl)ethyl)pyrazine-2-carboxamide], the EC50 in experiment [1] (setting [4]) was < 1000 nM. Also, the IC50 on PDK1 (inhibition of PDK1 in vitro) was < 100 nM.

With `C[C@H](NC(=O)c1cc(C#N)cnc1NCc1ccc(-c2cnc(N)c(NCC(O)CO)n2)cc1)c1ccc(F)cc1` (stereo partly drawn) [Example 243, 2-{4-[5-Amino-6-(2,3-dihydroxy-propylamino)-pyrazin-2-yl]-benzylamino}-5-cyano-N-[(S)-1-(4-fluoro-phenyl)-ethyl]-nicotinamide], the EC50 in experiment [1] (setting [4]) is < 1000 nM. Besides, at PDK1 (inhibition of PDK1 in vitro), the IC50 is < 100 nM.

As for `Nc1ncc(-c2ccc(CNc3ncc(C(F)(F)F)cc3C(=O)Nc3ccc(F)cc3)cc2)nc1N1CCC[C@@H](N)C1` [Example 189, 2-{4-[5-Amino-6-((R)-3-amino-piperidin-1-yl)-pyrazin-2-yl]-benzylamino}-N-(4-fluoro-phenyl)-5-trifluoromethyl-nicotinamide], in experiment [1] (setting [4]), the EC50 fell in the range of 1000 to 10000 nM. Further, the IC50 on PDK1 (inhibition of PDK1 in vitro) was < 100 nM.

Consider `CNc1ccc(-c2ccc(CNc3ncc(C#N)cc3C(=O)N[C@@H](C)c3ccc(F)cc3)cc2)cn1` [Example 141], for which the EC50 in experiment [1] (setting [4]) fell in the range of 1000 to 10000 nM. Further, the IC50 against PDK1 (inhibition of PDK1 in vitro) is < 100 nM.
